Assay: Inhibition of T-cell proliferation was determined by a human T-cell assay

| Structure (SMILES) | IC50 [nM] |
| --- | --- |
| C=C(C)CNC(=O)O[C@H]1CC[C@@](CNC(=O)c2ccccc2OC)(c2ccccc2)CC1 [(2-Methyl-allyl)-carbamic acid 4-[(2-methoxy-benzoylamino)-methyl]-4-phenyl-cyclohexyl ester] | 688 |
| COCCNC(=O)O[C@H]1CC[C@@](CNC(=O)c2ccccc2OC)(c2ccccc2)CC1 [(2-Methoxy-ethyl)-carbamic acid 4-[(2-methoxy-benzoylamino)-methyl]-4-phenyl-cyclohexyl ester] | 1000 |
| COc1ccccc1C(=O)NC[C@]1(c2ccccc2)CC[C@@H](OC(=O)NC(C)C)CC1 [Isopropyl-carbamic acid 4-[(2-methoxy-benzoylamino)-methyl]-4-phenyl-cyclohexyl ester] | 222 |
| COc1ccccc1C(=O)NC[C@]1(c2ccccc2)CC[C@H](OC(=O)NCc2ccccc2)CC1 [Benzyl-carbamic acid 4-[(2-methoxy-benzoylamino)-methyl]-4-phenyl-cyclohexyl ester] | 915 |
| CCCCNC(=O)O[C@H]1CC[C@](CNC(=O)c2ccccc2OC)(c2ccccc2)CC1 [Butyl-carbamic acid 4-[(2-methoxy-benzoylamino)-methyl]-4-phenyl-cyclohexyl ester] | 320 |
| C=CCNC(=O)O[C@H]1CC[C@](CNC(=O)c2ccccc2OC)(c2ccccc2)CC1 [Allyl-carbamic acid 4-[(2-methoxy-benzoylamino)-methyl]-4-phenyl-cyclohexyl ester] | 1100 |
| CNC(=O)O[C@H]1CC[C@](CNC(=O)c2ccccc2OC)(c2ccccc2)CC1 [Methyl-carbamic acid 4-[(2-methoxy-benzoylamino)-methyl]-4-phenyl-cyclohexyl ester] | 1260 |
| C=CCNC(=O)O[C@H]1CC[C@@](CNC(=O)c2ccccc2OC)(c2ccccc2)CC1 [Allyl-carbamic acid 4-[(2-methoxy-benzoylamino)-methyl]-4-phenyl-cyclohexyl ester] | 361 |
| C=CCN(C)C(=O)O[C@H]1CC[C@](CNC(=O)c2ccccc2OC)(c2ccccc2)CC1 [Allyl-methyl-carbamic acid 4-[(2-methoxy-benzoylamino)-methyl]-4-phenyl-cyclohexyl ester] | 659 |
| COc1ccccc1C(=O)NC[C@]1(c2ccccc2)CC[C@@H](OC(=O)NCCO)CC1 [(2-Hydroxy-ethyl)-carbamic acid 4-[(2-methoxy-benzoylamino)-methyl]-4-phenyl-cyclohexyl ester] | 1790 |
| COc1ccccc1C(=O)NC[C@]1(c2ccccc2)CC[C@H](NC(=O)Cc2ccccc2)CC1 [2-Methoxy-N-(1-phenyl-4-phenylacetylamino-cyclohexylmethyl)-benzamide] | 609 |
| COc1ccccc1C(=O)NC[C@]1(c2ccccc2)CC[C@H](OC(=O)NC(C)C)CC1 [Isopropyl-carbamic acid 4-[(2-methoxy-benzoylamino)-methyl]-4-phenyl-cyclohexyl ester] | 892 |
| COc1ccccc1C(=O)NC[C@]1(c2ccccc2)CC[C@H](NC(=O)CCc2ccccc2)CC1 [2-Methoxy-N-[1-phenyl-4-(3-phenyl-propionylamino)-cyclohexylmethyl]-benzamide] | 200 |
| CCCCNC(=O)O[C@H]1CC[C@@](CNC(=O)c2ccccc2OC)(c2ccccc2)CC1 [Butyl-carbamic acid 4-[(2-methoxy-benzoylamino)-methyl]-4-phenyl-cyclohexyl ester] | 688 |
| COc1ccccc1C(=O)NCC1(c2ccccc2)CCC(=O)CC1 [2-Methoxy-N-(4-oxo-1-phenyl-cyclohexylmethyl)-benzamide] | 1200 |
| COc1ccccc1C(=O)NC[C@]1(c2ccccc2)CC[C@H](OC(N)=O)CC1 [Carbamic acid 4-[(2-methoxy-benzoylamino)-methyl]-4-phenyl-cyclohexyl ester] | 519 |

The next lines start with the values.

| IC50 [nM] | Structure (SMILES) |
| --- | --- |
| 618 | COc1ccccc1C(=O)NC[C@]1(c2ccccc2)CC[C@@H](NC(=O)SC)CC1 [{4-[(2-Methoxy-benzoylamino)-methyl]-4-phenyl-cyclohexyl}-thiocarbamic acid methyl ester] |
| 273 | CCCNC(=O)O[C@H]1CC[C@@](CNC(=O)c2ccccc2OC)(c2ccccc2)CC1 [Propyl-carbamic acid 4-[(2-methoxy-benzoylamino)-methyl]-4-phenyl-cyclohexyl ester] |
| 237 | COc1ccccc1C(=O)NC[C@]1(c2ccccc2)CC[C@H](OC(=O)Nc2ccccc2)CC1 [Phenyl-carbamic acid 4-[(2-methoxy-benzoylamino)-methyl]-4-phenyl-cyclohexyl ester] |
| 430 | C=CCNC(=O)N[C@H]1CC[C@](CNC(=O)c2ccccc2OC)(c2ccccc2)CC1 [N-[4-(3-Allyl-ureido)-1-phenyl-cyclohexylmethyl]-2-methoxy-benzamide] |
| 154 | COc1ccccc1C(=O)NC[C@]1(c2ccccc2)CC[C@H](NC(=O)c2ccccc2)CC1 [N-(4-Benzoylamino-1-phenyl-cyclohexylmethyl)-2-methoxy-benzamide] |
| 539 | C=CCOC(=O)N[C@H]1CC[C@@](CNC(=O)c2ccccc2OC)(c2ccccc2)CC1 [{4-[(2-Methoxy-benzoylamino)-methyl]-4-phenyl-cyclohexyl}-carbamic acid allyl ester] |
| 354 | C=CCOC(=O)N[C@H]1CC[C@](CNC(=O)c2ccccc2OC)(c2ccccc2)CC1 [{4-[(2-Methoxy-benzoylamino)-methyl]-4-phenyl-cyclohexyl}-carbamic acid allyl ester] |
| 399 | C/C=C/C(=O)N[C@H]1CC[C@](CNC(=O)c2ccccc2OC)(c2ccccc2)CC1 [N-[4-((E)-But-2-enoylamino)-1-phenyl-cyclohexylmethyl]-2-methoxy-benzamide] |
| 676 | C=CCNC(=O)N[C@H]1CC[C@@](CNC(=O)c2ccccc2OC)(c2ccccc2)CC1 [N-[4-(3-Allyl-ureido)-1-phenyl-cyclohexylmethyl]-2-methoxy-benzamide] |
| 1060 | COC(=O)N[C@H]1CC[C@@](CNC(=O)c2ccccc2OC)(c2ccccc2)CC1 [{4-[(2-Methoxy-benzoylamino)-methyl]-4-phenyl-cyclohexyl}-carbamic acid methyl ester] |
| 195 | CNC(=O)O[C@H]1CC[C@@](CNC(=O)c2ccccc2OC)(c2ccccc2)CC1 [Methyl-carbamic acid 4-[(2-methoxy-benzoylamino)-methyl]-4-phenyl-cyclohexyl ester] |

— BindingDB's records for doi:10.1016/s0960-894x(03)00014-3 (Merck Research Laboratories, 2003)
